Active and inactive are the calls of the source. No cut-off for these calls is given here.
Legend:
H9c2 [1] = test: Cytotoxicity against rat H9c2 cells assessed as cell viability upto 20 uM incubated for 24 hrs by CCK-8 assay; type: toxicity, cell-based; details: h9c2, 24 h
H9c2 [2] = test: Protection against H/R induced damage in rat H9c2 cells assessed as increase in cell viability at 1 to 20 umol/L preincubated for 2 hrs followed by hypoxic reoxygenation induction by CCK-8 assay; type: functional, cell-based; details: dose 1-20 µmol/L
Rattus norvegicus [3] = test: Cardioprotective activity in myocardial ischemia/reperfusion induced rat injury model assessed as reduction in myocardial fiber disruption at 5 to 20 mg/kg, iv pretreated with compound followed by MI/R induction measured after 30 mins by H and E staining based light microscopic analysis; type: functional, organism-based; details: dose 5-20 mg/kg
Rattus norvegicus [4] = test: Cardioprotective activity in myocardial ischemia/reperfusion induced rat injury model assessed as improvement in cardiac injury at 5 to 20 mg/kg, iv pretreated with compound followed by MI/R induction measured after 30 mins by H and E staining based light microscopic analysis; type: functional, organism-based; details: dose 5-20 mg/kg
Chorioallantoic membrane = test: Angiogenesis activity in chicken embryo chorioallantoic membrane assessed as increase in total number of blood vessels incubated for 132 hrs by CAM assay; type: functional, tissue-based; details: Gallus gallus
[5] = Toxicity in rat assessed as change in organ color at 20 to 100 mg/kg, iv measured after 14 days; type: organism-based; details: in vivo, 336 h, dose 20-100 mg/kg, time 14 day
Rattus norvegicus [6] = test: Cardioprotective activity in myocardial ischemia/reperfusion induced rat injury model assessed as prevention of heart rate decrease at 5 to 20 mg/kg, iv measured after 30 mins; type: functional, organism-based; details: dose 5-20 mg/kg
[7] = Toxicity in rat assessed as change in organ index at 20 to 100 mg/kg, iv measured after 14 days; type: organism-based; details: in vivo, 336 h, dose 20-100 mg/kg, time 14 day
Rattus norvegicus [8] = test: Cardioprotective activity in myocardial ischemia/reperfusion induced rat injury model assessed as improvement in damaged left ventricular systolic pressure at 5 to 20 mg/kg, iv measured after 30 mins; type: functional, organism-based; details: dose 5-20 mg/kg
H9c2 [9] = test: Cardioprotective activity against H/R induced damage in rat H9c2 cells assessed as reduction in BNP gene expression by RT-qPCR assay; type: functional, cell-based; details: dose 5-20 µM
H9c2 [10] = test: Cardioprotective activity against MI/R induced rat H9c2 cells assessed as upregulation of VEGFA protein expression at 5 to 20 uM pretreated with compound followed by MI/R induction by Western blotting assay; type: functional, cell-based; details: dose 5-20 µM
H9c2 [11] = test: Cardioprotective activity against MI/R induced rat H9c2 cells assessed as reduction in PP2B protein expression at 5 to 20 uM pretreated with compound followed by MI/R induction by Western blotting assay; type: functional, cell-based; details: dose 5-20 µM
H9c2 [12] = test: Protection against H/R induced damage in rat H9c2 cells assessed as reduction in LDH level at 20 uM preincubated with compound followed by hypoxic reoxygenation induction; type: functional, cell-based
Rattus norvegicus [13] = test: Antioxidant activity in myocardial ischemia/reperfusion induced rat injury model assessed as increase in SOD level at 5 to 20 mg/kg, iv pretreated with compound followed by MI/R induction measured after 30 mins; type: functional, organism-based; details: dose 5-20 mg/kg
[14] = Toxicity in rat assessed as change in organ morphology at 20 to 100 mg/kg, iv measured after 14 days; type: organism-based; details: in vivo, 336 h, dose 20-100 mg/kg, time 14 day
H9c2 [15] = test: Cardioprotective activity against MI/R induced rat H9c2 cells assessed as upregulation of CREB3L4 protein expression at 5 to 20 uM pretreated with compound followed by MI/R induction by Western blotting assay; type: functional, cell-based; details: dose 5-20 µM
H9c2 [16] = test: Protection against H/R induced necrosis in rat H9c2 cells assessed as reduction in myocardial cell death preincubated with compound followed by hypoxic reoxygenation induction by Hoechst 33258/PI double staining based fluorescence microscopic analysis; type: functional; details: dose 5-20 µM
H9c2 [17] = test: Protection against H/R induced damage in rat H9c2 cells assessed as reduction in CK-MB level at 20 uM preincubated with compound followed by hypoxic reoxygenation induction; type: functional, cell-based
H9c2 [18] = test: Cardioprotective activity against MI/R induced rat H9c2 cells assessed as upregulation of ADCY5 protein expression at 5 to 20 uM pretreated with compound followed by MI/R induction by Western blotting assay; type: functional, cell-based; details: dose 5-20 µM
Rattus norvegicus [19] = test: Cardioprotective activity in iv dosed myocardial ischemia/reperfusion induced rat injury model assessed as reduction in serum LDH level pretreated with compound followed by MI/R induction measured after 30 mins; type: functional, organism-based; details: dose 5-20 mg/kg
H9c2 [20] = test: Cardioprotective activity against MI/R induced rat H9c2 cells assessed as reduction in BNP protein expression at 5 to 20 uM pretreated with compound followed by MI/R induction by Western blotting assay; type: functional, cell-based; details: dose 5-20 µM
H9c2 [21] = test: Cardioprotective activity against H/R induced damage in rat H9c2 cells assessed as reduction in PP2B gene expression by RT-qPCR assay; type: functional, cell-based; details: dose 5-20 µM
H9c2 [22] = test: Protection against H/R induced necrosis in rat H9c2 cells assessed as reduction in myocardial cell death at 5 to 20 uM preincubated with compound followed by hypoxic reoxygenation induction by Hoechst 33258/PI double staining based fluorescence microscopic analysis; type: functional; details: dose 5-20 µM
Rattus norvegicus [23] = test: Cardioprotective activity in myocardial ischemia/reperfusion induced rat injury model assessed as improvement in damaged left ventricular diastolic pressure at 5 to 20 mg/kg, iv measured after 30 mins; type: functional, organism-based; details: dose 5-20 mg/kg
H9c2 [24] = test: Antioxidant activity against H/R induced damage in rat H9c2 cells assessed as increase in SOD level preincubated with compound followed by hypoxic reoxygenation induction; type: functional, cell-based; details: dose 5-20 µM
H9c2 [25] = test: Protection against H/R induced damage in rat H9c2 cells assessed as increase in cell viability at 1 to 20 umol/L preincubated for 2 hrs followed by hypoxic reoxygenation induction by CCK-8 assay (reference value: 45.1 +/- 2.1%); type: functional; details: dose 1-20 µmol/L; at 1 to 20 µM
Rattus norvegicus [26] = test: Cardioprotective activity in myocardial ischemia/reperfusion induced rat injury model assessed as prevention of average femoral artery blood pressure decrease at 5 to 20 mg/kg, iv measured after 30 mins; type: functional, organism-based; details: dose 5-20 mg/kg
H9c2 [27] = test: Cardioprotective activity against H/R induced damage in rat H9c2 cells assessed as upregulation of VEGFA gene expression at 5 to 20 uM by RT-qPCR assay; type: functional, cell-based; details: dose 5-20 µM
[28] = Drug accumulation in rat heart at 5 to 20 mg/kg, iv measured after 2 hrs by HPLC analysis; type: ADME, organism-based; details: in vivo, dose 5-20 mg/kg
Rattus norvegicus [29] = test: Cardioprotective activity in iv dosed myocardial ischemia/reperfusion induced rat injury model assessed as reduction in serum CK-MB level pretreated with compound followed by MI/R induction measured after 30 mins; type: functional, organism-based; details: dose 5-20 mg/kg
H9c2 [30] = test: Cardioprotective activity against H/R induced damage in rat H9c2 cells assessed as upregulation of CREB3L4 gene expression at 5 to 20 uM by RT-qPCR assay; type: functional, cell-based; details: dose 5-20 µM
H9c2 [31] = test: Cardioprotective activity against H/R induced damage in rat H9c2 cells assessed as upregulation of ADCY5 gene expression at 5 to 20 uM by RT-qPCR assay; type: functional, cell-based; details: dose 5-20 µM
H9c2 [32] = test: Antioxidant activity against H/R induced damage in rat H9c2 cells assessed as reduction in MDA level at 5 to 20 uM preincubated with compound followed by hypoxic reoxygenation induction; type: functional, cell-based; details: dose 5-20 µM
Rattus norvegicus [33] = test: Cardioprotective activity in myocardial ischemia/reperfusion induced rat injury model assessed as improvement in damaged ventricular systolic function at 5 to 20 mg/kg, iv measured after 30 mins; type: functional, organism-based; details: dose 5-20 mg/kg
Rattus norvegicus [34] = test: Antioxidant activity in myocardial ischemia/reperfusion induced rat injury model assessed as decrease in MDA level at 5 to 20 mg/kg, iv pretreated with compound followed by MI/R induction measured after 30 mins; type: functional, organism-based; details: dose 5-20 mg/kg
Rattus norvegicus [35] = test: Cardioprotective activity in iv dosed myocardial ischemia/reperfusion induced rat injury model assessed as reduction in area of infraction pretreated with compound followed by MI/R induction measured after 30 mins by TTC staining based assay; type: functional, organism-based; details: dose 5-20 mg/kg

O=C(CCC[C@@H]1[C@H]2CCCN3CCC[C@@H](CN1Cc1ccccc1)[C@@H]23)NC1CC1
Activity (H9c2 [1]): Non-Toxic

O=C(CCC[C@@H]1[C@H]2CCCN3CCC[C@@H](CN1Cc1ccccc1)[C@@H]23)NCCOCCO
Activity (H9c2 [2]): Active

O=C(CCC[C@@H]1[C@H]2CCCN3CCC[C@@H](CN1Cc1ccccc1)[C@@H]23)NC1CCCCC1
Activity (H9c2 [1]): Non-Toxic

O=C(CCC[C@@H]1[C@H]2CCCN3CCC[C@@H](CN1Cc1ccccc1)[C@@H]23)NCCC1=CC=CCC1=S
Activity (H9c2 [1]): Non-Toxic

O=C(CCC[C@@H]1[C@H]2CCCN3CCC[C@@H](CN1Cc1ccccc1)[C@@H]23)NC1CCC1
Activity (H9c2 [1]): Non-Toxic

CC(C)NCC(O)COc1ccc(CC(N)=O)cc1 (configuration not stated)
Activity (Rattus norvegicus [3]): Active | Activity (Rattus norvegicus [4]): Active

O=C(CCC[C@@H]1[C@H]2CCCN3CCC[C@@H](CN1Cc1ccccc1)[C@@H]23)NC1CCCC1
Activity (H9c2 [1]): Non-Toxic

O=C(CCC[C@@H]1[C@H]2CCCN3CCC[C@@H](CN1Cc1ccccc1)[C@@H]23)NCCOCCOC(=O)c1sccc1Cl
Activity (Chorioallantoic membrane): Active | Activity [5]: Non-Toxic | Activity (Rattus norvegicus [6]): Active | Activity [7]: Non-Toxic | Activity (Rattus norvegicus [8]): Active | Activity (Rattus norvegicus [3]): Active | Activity (H9c2 [9]): Dose-Dependent Effect | Activity (H9c2 [10]): Active | Activity (H9c2 [11]): Active | Activity (H9c2 [12]): Active | Activity (Rattus norvegicus [13]): Active | Activity [14]: Non-Toxic | Activity (H9c2 [15]): Active | Activity (H9c2 [16]): Dose-Dependent Effect | Activity (H9c2 [17]): Active | Activity (H9c2 [18]): Active | Activity (Rattus norvegicus [19]): Dose-Dependent Effect | Activity (H9c2 [20]): Active | Activity (H9c2 [21]): Dose-Dependent Effect | Activity (H9c2 [22]): Active | Activity (Rattus norvegicus [4]): Active | Activity (Rattus norvegicus [23]): Active | Activity (H9c2 [24]): Dose-Dependent Effect | Activity (H9c2 [25]): 93.2% | Activity (Rattus norvegicus [26]): Active | Activity (H9c2 [27]): Active | Drug uptake [28]: Active | Activity (Rattus norvegicus [29]): Dose-Dependent Effect | Activity (H9c2 [30]): Active | Activity (H9c2 [31]): Active | Activity (H9c2 [32]): Active | Activity (Rattus norvegicus [33]): Active | Activity (Rattus norvegicus [34]): Active | Activity (Rattus norvegicus [35]): Dose-Dependent Effect

O=C(CCC[C@@H]1[C@H]2CCCN3CCC[C@@H](CN1Cc1ccccc1)[C@@H]23)NCCc1ccc(O)cc1
Activity (H9c2 [1]): Non-Toxic

O=C(CCC[C@@H]1[C@H]2CCCN3CCC[C@@H](CN1Cc1ccccc1)[C@@H]23)NCCc1c[nH]c2ccccc12
Activity (H9c2 [1]): Non-Toxic

O=C1CCC[C@@H]2[C@H]3CCCN4CCC[C@@H](CN12)[C@@H]34 [MATRINE]
Activity (H9c2 [1]): Non-Toxic

O=C(CCC[C@@H]1[C@H]2CCCN3CCC[C@@H](CN1Cc1ccccc1)[C@@H]23)Nc1cccnn1
Activity (H9c2 [1]): Non-Toxic

CCOCCNC(=O)CCC[C@@H]1[C@H]2CCCN3CCC[C@@H](CN1Cc1ccccc1)[C@@H]23
Activity (H9c2 [1]): Non-Toxic

— ChEMBL document CHEMBL5550177, “Design and synthesis of matrine derivatives for anti myocardial ischemia-reperfusion injury by promoting angiogenesis” (Bioorg Med Chem, 2024)
